From patent US20180000085A1, “USE OF PICOLINAMIDE COMPOUNDS WITH FUNGICIDAL ACTIVITY” (DOW AGROSCIENCES LLC, priority 2014, published 2018)

Key:
Type in all cases: in vivo
[1] = system: Zymoseptoria tritici; experiment: Leaf blotch of wheat (SEPTTR) disease control on wheat seedlings; settings: low volume application, 125.1 g/H; for SEPTTR 1DP disease control rating, LV activity at 125.1 g/H: 1 day protectant; for SEPTTR 3DC disease control rating, LV activity at 125.1 g/H: 3 day curative
[2] = system: Pyricularia oryzae; settings: 100 ppm; 1 Day Protectant; rice
[3] = system: Alternaria solani; experiment: Tomato early blight (ALTESO) disease control; set-up: key: A: > 80; B: ≤ 80; C: Not Tested; D: No Activity Observed in the Reported Assay; settings: 100 ppm, 1 Day Protectant
Method: All fungicides were evaluated using the aforementioned method for their activity vs. all target diseases, unless stated otherwise. Wheat leaf blotch and brown rust activity were also evaluated using track spray applications, in which case the fungicides were formulated as EC formulations, containing 0.1% Trycol 5941 in the spray solutions. Wheat plants (variety Yuma) were grown from seed in a greenhouse in 50% mineral soil/50% soil-less Metro mix until the first leaf was fully emerged, with 7-10 seedlings per pot. These plants were inoculated with an aqueous spore suspension of Zymoseptoria tritici either prior to or after fungicide treatments. After inoculation the plants were kept in 100% relative humidity (one day in a dark dew chamber followed by two to three days in a lighted dew chamber at 20° C.) to permit spores to germinate and infect the leaf. The plants were then transferred to a greenhouse set at 20° C. for disease to develop. When disease symptoms were fully expressed on the 1st leaves of untreated plants, infection levels were assessed on a scale of 0 to 100 percent disease severity. Percent disease control was calculated using the ratio of disease severity on treated plants relative to untreated plants. Example J: Evaluation of Fungicidal Activity: Tomato Early Blight (Alternaria solani; Bayer Code […]) Tomato plants (variety Outdoor Girl) were propagated in soil-less Metro mix, with each pot having one plant, and used when 12 to 14 days old. Test plants were inoculated with an aqueous spore suspension of Alternaria solani 24 hr after fungicide treatments. After inoculation the plants were kept in a dew room at 22° C. with 100% relative humidity for 48 h to permit spores to germinate and infect the leaf. The plants were then transferred to a growth room at 22° C. for disease to develop. Fungicide formulation, application and disease assessment on the sprayed leaves followed the procedures as described in the Example A.

[4] = system: Colletotrichum lagenarium; experiment: Cucumber anthracnose (COLLLA) disease control; settings: 100 ppm, 1 Day Protectant
Method: All fungicides were evaluated using the aforementioned method for their activity vs. all target diseases, unless stated otherwise. Wheat leaf blotch and brown rust activity were also evaluated using track spray applications, in which case the fungicides were formulated as EC formulations, containing 0.1% Trycol 5941 in the spray solutions. Wheat plants (variety Yuma) were grown from seed in a greenhouse in 50% mineral soil/50% soil-less Metro mix until the first leaf was fully emerged, with 7-10 seedlings per pot. These plants were inoculated with an aqueous spore suspension of Zymoseptoria tritici either prior to or after fungicide treatments. After inoculation the plants were kept in 100% relative humidity (one day in a dark dew chamber followed by two to three days in a lighted dew chamber at 20° C.) to permit spores to germinate and infect the leaf. The plants were then transferred to a greenhouse set at 20° C. for disease to develop. When disease symptoms were fully expressed on the 1st leaves of untreated plants, infection levels were assessed on a scale of 0 to 100 percent disease severity. Percent disease control was calculated using the ratio of disease severity on treated plants relative to untreated plants. Example K: Evaluation of Fungicidal Activity: Cucumber Anthracnose (Colletotrichum lagenarium; Bayer Code COLLLA) Cucumber seedlings (variety Bush Pickle) were propagated in soil-less Metro mix, with each pot having one plant, and used in the test when 12 to 14 days old. Test plants were inoculated with an aqueous spore suspension of Colletotrichum lagenarium 24 hr after fungicide treatments. After inoculation the plants were kept in a dew room at 22° C. with 100% relative humidity for 48 hr to permit spores to germinate and infect the leaf. The plants were then transferred to a growth room set at 22° C. for disease to develop. Fungicide formulation, application and disease assessment on the sprayed leaves followed the procedures as described in the Example A.

Row | SMILES | SEPTTR 1DP, LV activity at 125.1 g/H (% Control rating) ([1]; 1 Day Protectant) | SEPTTR 3DC, LV activity at 125.1 g/H (% Control rating) ([1]; 3 Day Curative) | PYRIOR disease control, 1DP [2] | ALTESO disease control, 1DP [3] | COLLLA disease control, 1DP [4] | SEPTTR 1DP disease control rating, LV activity at 125.1 g/H [1] | SEPTTR 3DC disease control rating, LV activity at 125.1 g/H [1] | LV activity at 125.1 g/H SEPTTR 1DP (disease control rating) ([1]; 1 Day Protectant, wheat leaf blotch) | LV activity at 125.1 g/H SEPTTR 3DC (disease control rating) ([1]; 3 Day Curative, wheat leaf blotch)
1 | COc1ccnc(C(=O)N[C@@H](C)C(=O)O[C@@H](C)[C@H](Oc2cccc(F)c2)c2ccccc2)c1OCOC(C)=O [Cmpd 574] | A (> 80) | A (> 80) | A (> 80) | B (≤ 80) | A (> 80) | – | – | – | –
2 | CCC(CC)[C@@H](Oc1ccc(F)cc1)[C@H](C)OC(=O)[C@H](C)NC(=O)c1nccc(OC)c1OCOC(C)=O [Cmpd 587] | A (> 80) | A (> 80) | A (> 80) | D | A (> 80) | – | – | – | –
3 | COc1ccnc(C(=O)N[C@@H](C)C(=O)O[C@@H](C)[C@H](Oc2cccc(Cl)c2)c2ccccc2)c1OCOC(C)=O [Cmpd 637] | A (> 80) | A (> 80) | B (≤ 80) | D | B (≤ 80) | – | – | – | –
4 | COc1ccnc(C(=O)N[C@@H](C)C(=O)O[C@@H](C)[C@H](Oc2ccccc2Cl)c2ccccc2)c1OC(C)=O [Cmpd 640] | A (> 80) | A (> 80) | A (> 80) | B (≤ 80) | A (> 80) | – | – | – | –
5 | COc1ccnc(C(=O)N[C@@H](C)C(=O)O[C@@H](C)[C@H](Oc2cc(F)cc(Cl)c2)c2ccccc2)c1OC(C)=O [Cmpd 642] | A (> 80) | A (> 80) | A (> 80) | D | A (> 80) | – | – | – | –
6 | CCC(C)C(Oc1ccccc1)C(C)OC(=O)C(C)NC(=O)c1nccc(OC)c1OCOC(C)=O (stereo not drawn) [Cmpd 692] | – | – | A (> 80) | B (≤ 80) | A (> 80) | A (> 80) | A (> 80) | – | –
7 | C=CC(C)C(Oc1ccccc1)C(C)OC(=O)C(C)NC(=O)c1nccc(OC)c1OCOC(C)=O (stereo not drawn) [Cmpd 694] | – | – | A (> 80) | B (≤ 80) | A (> 80) | B (≤ 80) | A (> 80) | – | –
8 | CCC[C@@H](Oc1ccccc1)[C@H](C)OC(=O)[C@H](C)NC(=O)c1nccc(OC)c1OCOC(C)=O [Cmpd 699] | – | – | A (> 80) | B (≤ 80) | A (> 80) | A (> 80) | A (> 80) | – | –
9 | COc1ccnc(C(=O)N[C@@H](C)C(=O)O[C@@H](C)[C@@H](CC(C)C)Oc2ccccc2)c1OCOC(=O)C(C)C [Cmpd 1101] | – | – | B (≤ 80) | D | A (> 80) | – | – | A (> 80) | A (> 80)
